Reference: patent US20250109139A1, “TRICYCLIC COMPOUND, AND PREPARATION METHOD THEREFOR AND USE THEREOF” (SHANGHAITECH UNIVERSITY, priority 2022, published 2025)
Read-outs that look alike come from different tables or passages of the source.

What was measured:
[1] = tested on: MK801-induced hyperlocomotion in mice; experiment: Open field test, MK801-induced hyperlocomotion (schizophrenia-like model); assay type: in vivo, C57B6 male mice; conditions: for inhibition of MK801-induced hyperlocomotion in mice (in words): at different doses
Experimental: Experimental method: The experimental animals were C57B6 male mice, n=8 in each group. In this model, C57B6 mice were used as experimental animals. Hyperlocomotion of the mice in open field was induced by acute injection of a NMDA antagonist MK801, and modeled to test the inhibitory effect of different compounds on hyperlocomotion phenotype induced by MK801 All mouse behavior experiments were carried out during the light period. The whole process was recorded by the camera, and locomotive data were tracked and analyzed by behavioral tracking software. The compounds were administered intraperitoneally. Immediately after the injection, the mice entered the open field and their movement trajectories were recorded by the camera. After 30 minutes, the mice received 0.2 mg/kg of MK801 by intraperitoneal injection and returned to the open field immediately after administration, and the movement trajectories were further recorded for 120 minutes. The accumulative travelled distance of the mice was counted in a 5-minute bin. Data statistics were performed using Student-t-test analysis, *p<0.05, **p<0.01, ***p<0.001, ****p<0.0001. The total travelled distance of the mice in the 0-45 minute interval after administration of the compounds of the present disclosure at different doses in combination with MK801 (0.2 mg/kg) is shown in Table 10.

dopamine D2 receptors [2] = target: T1, dopamine D2 receptors (Homo sapiens (Human), UniProt P14416); experiment: Dopamine D2 receptor radioligand competition binding assay ([3H]-Methylspiperone); conditions: [3H]-Methylspiperone 0.3 to 0.5 nM, 293T membranes
Procedure, shortened: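 Membranes from cells transfected with human D2 receptor, PEI-mediated; competition with [3H]-methylspiperone for 2 h at room temperature in the dark.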

dopamine D2 receptors [3] = target: T1, dopamine D2 receptors; experiment: Dopamine D2 receptor Gαi1 BRET (G protein trimer dissociation); assay type: cell-based; conditions: for Emax: relative to endogenous ligand dopamine, read-out: Gαi1 BRET Emax % ± SEM
Procedure, shortened: (§1)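 G-protein assay: cells co-transfected with D2 receptor, Gαi1-Rluc, Gβ3 and Gγ9-GFP (1 μg each); β-arrestin2 assay: D2-Rluc, GRK2 and GFP2-β-arrestin2 co-transfected. Cells were reseeded after one day and tested on day three. Drug dilution series were added in duplicate with coelenterazine 400a (5 μM final), and the BRET signal was read.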

dopamine D2 receptors [4] = target: T1, dopamine D2 receptors; experiment: Dopamine D2 receptor β-arrestin2 BRET (recruitment); assay type: cell-based; conditions: for Emax: relative to endogenous ligand dopamine, read-out: β-arrestin2 BRET Emax % ± SEM
Procedure, shortened: as §1

[5] = MK801 0.2 mg/kg + compound 0.0156 mg/kg i.p.
[6] = MK801 0.2 mg/kg + compound 0.0625 mg/kg i.p.
[7] = MK801 0.2 mg/kg + compound 0.25 mg/kg i.p.
[8] = read-out: Gαi1 BRET pEC50 ± SEM (converted)
[9] = unit printed only in Cariprazine cell, read-out: Gαi1 BRET EC50
[10] = unit printed only in Cariprazine cell, read-out: β-arrestin2 BRET EC50
[11] = read-out: Affinity pKi ± SEM (converted)
[12] = read-out: β-arrestin2 BRET pEC50 ± SEM (converted)

T1 sequence (P14416 whole entry): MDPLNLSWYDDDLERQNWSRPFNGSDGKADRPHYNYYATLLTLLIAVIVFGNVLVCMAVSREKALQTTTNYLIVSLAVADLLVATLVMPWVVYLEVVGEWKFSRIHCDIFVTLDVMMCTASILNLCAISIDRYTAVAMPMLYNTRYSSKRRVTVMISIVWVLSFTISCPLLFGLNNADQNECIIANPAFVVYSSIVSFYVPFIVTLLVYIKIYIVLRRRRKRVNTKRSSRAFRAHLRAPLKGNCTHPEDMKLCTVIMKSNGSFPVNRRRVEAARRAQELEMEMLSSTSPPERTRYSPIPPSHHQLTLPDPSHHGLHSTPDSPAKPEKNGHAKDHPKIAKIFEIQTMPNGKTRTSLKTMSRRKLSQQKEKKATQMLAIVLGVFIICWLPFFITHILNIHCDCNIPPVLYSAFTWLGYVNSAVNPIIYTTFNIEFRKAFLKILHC

SMILES | Distance travelled in 45 minutes [1, 5] [cm] | Distance travelled in 45 minutes [1, 6] [cm] | Distance travelled in 45 minutes [1, 7] [cm] | inhibition of MK801-induced hyperlocomotion in mice (in words) [1] | Affinity pKi ± SEM (dopamine D2 receptors [2]) | Ki (dopamine D2 receptors [2]; read-out: Affinity Ki) [nM] | EC50 (dopamine D2 receptors [3]; [8]) [nM] | Emax (dopamine D2 receptors [3]) [%] | EC50 (dopamine D2 receptors [3]; [9]) [nM] | β-arrestin2 BRET pEC50 ± SEM (dopamine D2 receptors [4]) | EC50 (dopamine D2 receptors [4]; [10]) [nM] | Ki (dopamine D2 receptors [2]; [11]) [nM] | EC50 (dopamine D2 receptors [4]; [12]) [nM] | Emax (dopamine D2 receptors [4]) [%] | Distance travelled in 45 minutes ([1]; MK801 0.2 mg/kg + compound 1 mg/kg i.p.) [cm] | Distance travelled in 45 minutes ([1]; MK801 0.2 mg/kg + compound 4 mg/kg i.p.) [cm]
COc1cccc2c3c(oc12)CN(CCCCOc1ccc2ccc(=O)[nH]c2c1)CC3 [I-A1, 7-(4-(8-methoxy-3,4-dihydrobenzofuro[2,3-c]pyridin-2(1H)-yl)butoxy)quinolin-2(1H)-one] | 9023 | 10706 | 3630 | significantly inhibit | (7.07 ± 0.02) | 84.4 | 23.4 | 55 | 48.8 | (7.62 ± 0.17) | 27.7 |  |  |  |  | 
COc1cccc2c3c(oc12)CN(CC[C@H]1CC[C@H](NC(=O)N(C)C)CC1)CC3 [I-A12, 3-(trans-4-(2-(8-methoxy-3,4-dihydrobenzofuro[2,3-c]pyridin-2(1H)-yl)ethyl)cyclohexyl)-1,1-dimethylurea] | 12729 | 5648 | 2267 | significantly inhibit |  | 436 |  | 70 | 1.38 |  | 10.7 | 372 | 8.13 | 108 |  | 
COc1cccc2c3c([nH]c12)CN(CC[C@H]1CC[C@H](NC(=O)N(C)C)CC1)CC3 [I-B7, 3-(trans-4-(2-(8-methoxy-1,3,4,9-tetrahydro-2H-pyrido[3,4-b]indol-2-yl)ethyl)cyclohexyl)-1,1-dimethylurea] |  |  | 13668 | significantly inhibit |  | 2.71 | 11.2 | 21 | 17 |  | 0.24 | 1.82 | 0.107 | 44 | 10199 | 4360
COc1cccc2c1cc1n2CCN(CCCCOc2ccc3ccc(=O)[nH]c3c2)C1 [I-C1, 7-(4-(9-methoxy-3,4-dihydropyrazino[1,2-a]indol-2(1H)-yl)butoxy)quinolin-2(1H)-one] |  |  |  |  |  | 401 | 6.31 | 72 | 7.94 |  | 220 | 269 |  | 117 |  | 
COc1cccc2c1cc1n2CCN(CCCCOc2ccc3c(c2)NC(=O)CC3)C1 [I-C2, 7-(4-(9-methoxy-3,4-dihydropyrazino[1,2-a]indol-2(1H)-yl)butoxy)-3,4-dihydroquinolin-2(1H)-one] |  |  |  |  |  | 221 | 44.7 | 81 | 46.3 |  | 122 | 61.7 | 66.1 | 115 |  | 
